Reference: patent US20250345370A1, “MICROBIAL LIBERATION OF N-METHYLSEROTONIN FROM ORANGE FIBER” (Washington University, priority 2022, published 2025)

Legend:
[1] = Human studies with pea and orange fiber snack prototypes: fecal N-methylserotonin and serotonin levels; assay type: in vivo
Description: Human studies with pea and orange fiber snack prototypes. Two separate open-label, single group assignment studies were performed involving members of the Missouri Adolescent Female Twin Study (MOAFTS) cohort who were age 31-45 years at the time of enrollment. The first study with the pea fiber snack was performed between April and August 2017, while the second study with the orange fiber snack was conducted between August and December 2017. All participants provided written informed consent and the studies were approved by the Washington University Institutional Review Board (IRB ID #201611122). (ClinicalTrials.gov NCT03078283).
The design of the two studies were identical except for the fiber snack supplement used and the number of participants in each study. Individuals who were pregnant or trying to get pregnant, had inflammatory bowel disease, gastrointestinal cancer, hepatitis, HIV, renal failure, or allergies to dairy, eggs, fish, crustacean shellfish, tree nuts, sesame seeds, peanuts, wheat, gluten, soybeans, celery, or mustard were excluded from the study. In Study 1, four twin pairs were concordant for obesity (BMI>30 kg/m2) while five pairs were discordant with one member being obese and the other non-obese (n=18 participants, […] (mean±SD); Table S8B). Study 2 involved 24 participants: 12 dizygotic twin pairs [37±2.9 years (mean±SD)], nine of whom had participated in the pea fiber study; for these nine pairs, the interval between cessation of pea fiber snack consumption and initiation of orange fiber consumption ranged from 50 to 106 days [84+26 days (mean±SD)]. Participants consumed their normal, unrestricted diet for the first two weeks of the study (pre-intervention phase). At the beginning of week three, they supplemented their diets with one 35 g fiber snack serving a day for one week, then two 35 g snack servings a day the following week, and thereafter, three 35 g snacks per day for four weeks (weeks 5-8) at breakfast, lunch and dinner. No attempt was made to adjust the diets of participants other than supplementation with the fiber snack. Snack prototypes were manufactured by Mondeldz International, Inc. (see Table S8A for their composition), which participants received in weekly shipments from the study center. The pea fiber snacks were in the form of rotary biscuits (6.7 g total fiber/35 g snack) or extruded bars (8.1 g fiber/35 g snack) with participants having the option to alternate between them. The orange fiber snacks were all in the form of extruded bars (10.2 g total fiber/35 g snack). Compliance was monitored throughout by the study coordinator through weekly phone calls. The primary outcomes for each study were the effects of the respective prototypes on gut microbial community structure and function.
Fecal samples were collected by participants in small medically approved collection containers. Each fecal sample was frozen immediately at −20° C. and temporarily stored in dedicated freezers provided to participants at the beginning of the study. Within 12-48 hours after collection, all samples were shipped, via overnight delivery, in an insulated container containing frozen gel packs, to a biospecimen repository located in Washington University in St. Louis and overseen by one of the authors (A.C.H.). Once received, samples were stored at −80° C. until processing for LC-QqQ-MS analysis of N-methylserotonin levels and culture-independent characterization of ASV and CAZyme gene abundances.
Measurement of fecal N-methylserotonin levels—Each fecal sample was homogenized with a porcelain mortar (4 L) and pestle while submerged in liquid nitrogen; multiple 500 mg aliquots of the pulverized frozen material were stored at −80° C. N-methylserotonin was quantified using the same protocol that was employed for mouse fecal samples (as described herein elsewhere).
N-methylserotonin levels and microbiome CAZyme gene abundances in humans consuming fiber snack prototypes. […]

5-Htr2A = 5-Htr2A (Homo sapiens, UniProt P28223); settings: in vitro studies; cited from earlier work
[2] = Tissue metabolites (liver glycogen and precursors, colonic glutamate) in germ-free mice given N-methylserotonin; assay type: in vivo, germ-free C57BL/6J mice
Description: For experiments involving administration of N-methylserotonin to germ-free mice, a stock solution of the compound (100 mg/mL, Santa Cruz Biotechnologies) was prepared in sterile water and filter sterilized ([…]; Nalgene). The outer surface of tubes containing the stock solution was sterilized with Clidox (Pharmacal) and the tubes were introduced into gnotobiotic isolators using standard procedures. The stock solution was then diluted in darkened glass water bottles (Ancare) in order to administer doses of 1 mg/kg/day or 50 mg/kg/day (based on an experimentally determined average consumption of 5 mL of water/day/mouse). Every four days, bottles were replaced with new ones containing fresh N-methylserotonin. Each of the three arms of the experiment, including the control arm where unsupplemented drinking water was administered, consisted of 5 mice.
Fecal samples and body weights were collected weekly, while food and water intake were monitored daily by comparing pellet mass in the food hopper and the volume of water in water bottles at the beginning and end of a 24 h period and dividing these values by the number of mice per cage. All animals were euthanized between 0830 h and 0930 h without prior fasting. Luminal contents from the proximal and distal halves of the small intestine, the cecum and the colon, host tissues (liver, epididymal fat pads, gastrocnemius muscle, the distal quarter of the small intestine (ileum), cecum and entire colon) plus serum were collected, flash frozen in liquid nitrogen and stored at −80° C. prior to analyses.
Other metabolites—Tissue (at least 10 mg) was placed in a reinforced 2 mL tube. A 20 times weight volume of extraction solvent was added (40% acetonitrile, 40% methanol, 20% water) and the tissue was disrupted as described herein. Samples were centrifuged at 12,000×g for 10 minutes at 4° C. A 200 μL aliquot of the resulting supernatant was transferred to a 2 mL glass tube and dried in a speed vacuum at room temperature (25° C.) for two hours. The dry extract was reconstituted in 100 μL of 90% water/10% acetonitrile and stored at −4° C. prior to injection; 5 μL was injected into a 1290 Infmity II UHPLC system coupled to a 6470 Triple Quadrupole LC/MS system equipped with a Jet Stream electrospray ionization source (Agilent Technologies). Chromatographic separation was performed on an Agilent ZORBAX Extend C18, […], 1.8 μm column, using the following gradient conditions: mobile phase A, 10 mM tributylamine and 15 mM acetic acid in 3% methanol (v/v); mobile phase B, 10 mM tributylamine and 15 mM acetic acid in 100% methanol; 0% solvent B (0-2 minutes); 0-20% solvent B (2-7.5 minutes); 20-45% solvent B (7.5-13 minutes); 45-99% solvent B (13-20 minutes); 99-0% solvent B (20-22 minutes) at a flow rate of 0.25 mL/minute. […] Transitions were taken from the Agilent Metabolomics dMRM Database.
Glutamate is known to […] Arntl when directly applied to tissue slices. Knockout of the Per3 homolog Per2 reduces expression of the glutamate transporter (Eaatl, Slc1A3) and uptake of glutamate in the brain. These observations raise the possibility that one way that N-methylserotonin might influence colonic circadian regulators is through its effects on glutamate levels in this tissue.

5-Htr2A, sequence (P28223 whole entry): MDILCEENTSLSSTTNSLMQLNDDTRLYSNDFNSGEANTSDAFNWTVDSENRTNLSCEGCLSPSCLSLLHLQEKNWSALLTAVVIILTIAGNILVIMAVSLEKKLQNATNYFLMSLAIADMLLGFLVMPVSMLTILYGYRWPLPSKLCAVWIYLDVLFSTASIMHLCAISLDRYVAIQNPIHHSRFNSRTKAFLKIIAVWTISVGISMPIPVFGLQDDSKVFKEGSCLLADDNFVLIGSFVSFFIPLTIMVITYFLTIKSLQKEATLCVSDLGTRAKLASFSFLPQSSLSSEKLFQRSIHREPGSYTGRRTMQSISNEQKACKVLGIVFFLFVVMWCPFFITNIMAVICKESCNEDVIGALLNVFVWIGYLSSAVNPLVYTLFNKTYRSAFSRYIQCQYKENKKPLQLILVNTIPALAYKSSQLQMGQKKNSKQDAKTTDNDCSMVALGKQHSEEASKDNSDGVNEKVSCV

SMILES: CNCCc1c[nH]c2ccc(O)cc12 [N-methylserotonin]
- fecal samples in which N-methylserotonin was undetectable ([1]; 36 samples, pea fiber snack prototype, weeks 3 and 5): 87%
- fecal samples in which N-methylserotonin was present ([1]; 48 samples, participants consuming the orange fiber snack prototype): 98%
- fecal N-methylserotonin concentration ([1]; orange fiber snacks at maximal dose (3 snacks/day), mean±SD): 72.5 ± 38.4 µM
- fecal N-methylserotonin (undetectable) ([1]; pea fiber snack prototype, 87% of 36 samples): < 0.05 µg/g
- binding (5-Htr2A): binds
- liver glucose-6-phosphate ([2]; 1 mg/kg/day): the lower dose did not
- liver glycogen ([2]; 1 mg/kg/day): the lower dose did not
- liver uridine ([2]; 1 mg/kg/day): the lower dose did not
- liver uridine monophosphate ([2]; 1 mg/kg/day): the lower dose did not
- liver glucose-6-phosphate ([2]; 50 mg/kg/day): statistically significant decrease
- liver glycogen ([2]; 50 mg/kg/day): statistically significant increases
- liver uridine ([2]; 50 mg/kg/day): statistically significant decreases
- liver uridine monophosphate ([2]; 50 mg/kg/day): statistically significant decreases
- glutamate levels in colonic tissue ([2]; 50 mg/kg/day, untreated controls 11±0.9): 21±1.4 ng/mg tissue
